Patent EP0574808A1, “Amidine-biphenyl derivatives, process for their production & medical preparation containing them” (Dr. Karl Thomae GmbH, priority 1992, dated 1993)

Test system: Collagen-induzierte Thrombozytenaggregation
Assay: Ex vivo inhibition of collagen-induced platelet aggregation after oral administration (Born and Cross photometric method)
Details: oral 3 mg/kg, suspended in Natrosol; Rhesusaffen; Collagen 2 µg/ml in platelet-rich plasma
Source text: Beispielsweise wurden die Verbindungen der allgemeinen Formel I auf ihre biologischen Wirkungen wie folgt untersucht: Die Hemmung der Thrombozytenaggregation nach oraler Gabe der Prüfsubstanz wird ex vivo an Rhesusaffen ermittelt.
Direkt vor der oralen Verabreichung der in Natrosol suspendierten Prüfsubstanz wird den Tieren eine Blutprobe aus der Kubitalvene als Referenzwert entnommen. Zu definierten Zeiten nach der Substanzgabe werden erneut Blutproben gewonnen und wie folgt untersucht.
Das mit 3,14% Natriumcitrat im Volumenverhältnis 1:10 versetzte Vollblut wird mit 200 g für 15 Minuten zentrifugiert. Der Überstand an plättchenreichem Plasma wird vorsichtig abgehoben. Aus dem erythrozytenreichen Sediment wird durch Zentrifugation mit 4000 g für 10 Minuten das plättchenarme Plasma als Überstand gewonnen.
Die mit Collagen (Hormonchemie, München; 2 µg/ml Endkonzentration im plättchenreichen Plasma) ausgelöste Thrombozytenaggregation in diesen ex vivo Proben wird nach der Methode von Born und Cross (J. Physiol. 170, 397 (1964)) photometrisch gemessen. Die nach Collagenstimulation gemessene größte Lichtdurchlässigkeit des plättchenreichen Plasmas wird mit dem Referenzwert verglichen, um die Hemmung der Aggregation zu den verschiedenen Zeitpunkten der Blutentnahme nach Substanzgabe relativ zum Referenzwert zu bestimmen.

## Cl.N=C(N)c1ccc(-c2ccc(C(=O)N3CCC(CC(=O)OC4CCCCC4)CC3)cc2)cc1 [Beispiel 1, 4-Amidino-4'-[4-(cyclohexyloxycarbonylmethyl)-piperidinocarbonyl]-biphenyl-hydrochlorid]
  Dauer der Hemmung der Collagen-induzierten Thrombozytenaggregation ex vivo: > 4 Stunden
